{"source": "patent US20070203079A1", "about": "“Methods of using small molecule compounds for neuroprotection” (priority 2005, published 2007)", "format_in_all_cases": "in vivo, C. elegans", "key": {"[1]": {"tested_on": "worms containing Punc-54::Q82::GFP+Punc-54::torsinA+Punc54::torsinA (ΔE)", "test": "Screen for reduction of polyglutamine protein aggregates in worms with wt and mutant torsinA", "settings": "differentiated by Q82::GFP lines without torsinA, with wt torsinA or with mutant torsinA", "protocol": "(§1) C elegans nematodes were grown at 20° C. on NGM plates as described by Brenner (Brenner, Genetics, 1974, 77: 71-94). Several transgenic C. elegans lines were used for primary screens of the Prestwick small molecule library. A transgenic worm line expressing Punc-54::Q82-GFP; with both wild type (“wt”) (Punc=54: :torsinA) or mutant (Punc-54::torsinA(ΔE)). Torsin-A expresses a phenotype that results in visible protein aggregation under fluorescent microscope. Transgenic worms were plated on drug plates and progeny were studied for a return to soluble protein.\n(§2) Drugs were administered to C. elegans according to a standard procedure (Rand and Johnson, Methods Cell Biol, 1995, 48: 187-204), by mixing the solubilized drug with the agar medium on which the worms are grown. This mode of administration allows the continuous exposure of worms to the drug.\nEach drug was first dissolved in an appropriate solvent, followed by adding the drug solution into pre-autoclaved media, with the volume of drug solution already taken into account. […] Each plate was seeded with 100 μl concentrated E. coli OP50 bacteria.\n(§3) The screening assays used to identify the compounds use protein aggregation readouts to determine the specificities of molecular action. […]\n(§4) The methods for the aggregate analysis assay are described in Caldwell et al. (Hum Mol Genetics, 2003, 12(3): 307-319). […] MetaMorph Software (Universal Imaging Inc.) was used for pseudocoloration of images, image overlay, and aggregate size quantitation. For each worm line analyzed, average aggregate size was determined by capturing images of all aggregates in the posterior region of 30 L3-staged animals (for Q82::GFP aggregates) or all aggregates in 30 adult animals/day (for Q19::GFP analyses) at 1000× magnification. […]\n(§5) To see the effect of the candidate compounds on suppressing protein misfolding and aggregation, five gravid adult worms were placed onto each drug plate and grown at 20° C. for approximately 3 days. Thirty Fl worms at L3 stage and young adult stage were counted for aggregate number."}, "[2]": {"tested_on": "worms expressing Punc-54::Q82::GFP+Punc-54::torsinA with wt torsinA only", "test": "Protein aggregate assay in worms with wt torsinA only", "protocol": "as §1, §2\nEach drug was first dissolved in an appropriate solvent, followed by adding the drug solution into pre-autoclaved media, with the volume of drug solution already taken into account. […]\nas §3, §4, §5"}, "[3]": {"tested_on": "protein misfolding and aggregation in transgenic worms", "test": "Preventative assay of protein aggregation (drug from hatching to L2 stage)", "settings": "exposure from hatching to L2 stage; scored at L3 and young adult", "protocol": "(§6) To see the preventative effects of the candidate drug compounds on protein misfolding and aggregation, five gravid adult worms were placed onto each drug plate and grown at 20° C. for approximately 3 days. 35-40 Fl worms at L2 stage were picked and transferred to a control plate with the same concentration of control solvent compared to the drug plate. Thirty worms at L3 stage were counted for aggregate number 8 hours later. Thirty young adults were analyzed 32 hours later.\n(§7) To calculate the scaled effectiveness of special regimen of drugs on worms based on standardized decrease in protein aggregates. The following formula was used: (A−B)/(A−C)×100%, where\n(§8) A=number of aggregates for worms growing on solvent control plates\n(§9) B=number of aggregates for worms grown on the specific drug plate for the entire life of the worms\nC=number of aggregates for worms that received pre-L2 exposure and were then removed to solvent control plates\n(§10) If the regimen has no effect, the value would equal 0%. Conversely, if the regimen was as effective as raising the worms on the drug for their entire life, the value would equal 100%."}, "[4]": {"tested_on": "protein misfolding and aggregation in transgenic worms", "test": "Corrective assay of protein aggregation (drug from L2 stage onward)", "settings": "drug exposure from L2 stage onward; scored at L3 and young adult", "protocol": "as §6, with “corrective effect” for “preventative effects”, “a solvent control” for “each drug”, “a” for “a control plate with the same concentration of control solvent compared to the”\nas §7, §8, §9\nC=number of aggregates for worms that received exposure from L2 stage (until adulthood)\nas §10"}, "[5]": {"tested_on": "Pdat-1::GFP+Pdat-1::α-synuclein+Pdat-1::torsinA worms", "test": "α-synuclein toxicity assay, wt torsinA", "text": "(§11) We have previously shown that torsinA can prevent dopamine (“DA”) neuron degeneration resulting from overexpression of α-synuclein in the DA neurons of C. elegans, while torsinA (“ΔE”) has a reduced neuroprotection (Cao et al., J Neurosci, 2005, 25(1): 3801-3812). Specifically, only 26.1±5.3% of the worms expressing Pdat-1::GFP+Pdat-1::α-synuclein maintained all 4 wildtype CEP DA neurons as 4 day adults while the percentages of the worms expressing Pdat-1::GFP+Pdat-1::α-synuclein+Pdat-1::torsinA and Pdat-1::GFP+Pdat-1::α-synuclein+Pdat-1:: torsinA (ΔE) are 57.3±1.6% and 42.2±7.3%, respectively (Cao et al., J Neurosci, 2005, 25(1): 3801-3812) (FIG. 8).\n(§12) All molecules are coded by Prestwick Library number. TorsinA-dependent compounds identified from the aggregation assay have torsinA-specific effects and, therefore, are likely to function in the same manner in the α-synuclein toxicity assay. All three α-synuclein transgenic lines were exposed to the five torsinA-dependent compounds to determine their torsinA-specificity (FIG. 9). As expected, none of these compounds had any effect in Pdat-1::GFP+Pdat-1::α-synuclein when torsinA expression is absent."}, "[6]": {"tested_on": "Pdat-1::GFP+Pdat-1::α-synuclein+Pdat-1:: torsinA (ΔE) worms", "test": "α-synuclein toxicity assay, mutant torsinA", "text": "as §11, §12"}, "[7]": {"tested_on": "worms containing Pdat-1::GFP+Pdat-1::torsinA+Pdat-1::torsinA (ΔE) after 6-OHDA exposure", "test": "6-OHDA dopaminergic neurodegeneration in worms with wt and mutant torsinA", "settings": "wt and mutant torsinA co-expressed; 6-OHDA insult", "text": "Previous studies have established that the “CEP” and “ADE” mechanosensory neurons in C. elegans undergo readily discernable neuronal degeneration after treatment with the dopamine-selective neurotoxin 6-OHDA (Nass et al, 2002). The toxicity of 6-OHDA is mediated through the formation of reactive oxygen species by the generation of hydrogen peroxide and […] via a nonenzymatic auto-oxidation process (Kumar et al., 1995; Foley and Riederer, 2000). […] This degeneration can be monitored in living animals by coexpressing with green fluorescent protein and categorized into three temporally and morphologically distinct stages, including neuronal process blebbing, cell body rounding with process loss, and cell body loss. These characteristic changes reproducibly appear in this order within a few hours, recapitulating observations in MPTP-treated monkeys and in 6-OHDA-treated rats, in which damage to striatal terminals leads to retrograde changes and precedes that of SNpc cell bodies (Berger et al., 1991; Herkenham et al., 1991). The actions of torsin protein in 6-OHDA-mediated neurodegeneration has recently been shown (Cao et al., J Neurosci, 25(1):3801-3812). Animals were treated with various concentrations of 6-OHDA and neurodegeneration was followed over time, as worms develop and age, by co-expression of a dopamine GFP marker in these transparent animals.\nC. elegans nematodes were grown at 25° C. on NGM plates as described by Brenner (Brenner, Genetics, 1974, 77: 71-94). Two transgenic C. elegans lines were used for primary screens of the Prestwick small molecule library. A transgenic worm line expressing Pdat-1::GFP; with both wild type (Pdat-1::torsinA) or mutant (Pdat-1:::torsinA(ΔE)). Torsin-A expresses a phenotype that results in visible neurodegeneration after treatment with 6-OHDA. Transgenic worms were plated on drug plates and progeny were studied for morphological changes in the 8 dopaminergic neurons present in C. elegans.\nDrugs were administered to C. elegans according to a standard procedure (Rand and Johnson, Methods Cell Biol, 1995, 48: 187-204) by mixing the solubilized drug with the agar medium on which the worms are grown. This mode of administration allows the continuous exposure of worms to the drug.\nEach drug was first dissolved in an appropriate solvent, followed by adding the drug solution into pre-autoclaved media, with the volume of drug solution already taken into account. All drugs were tested at 0.5 mg/ml initial concentration, a few of which were toxic to worms and then tested at 0.1 mg/ml or 0.025 mg/ml concentration. Each plate was seeded with 100 μl concentrated E. coli OP50 bacteria\nAge-synchronized worms were obtained by treating gravid adults with 2% sodium hypochlorite and 0.5M NaOH to isolate embryos (Lewis Fleming, 1995). These embryos were grown for 30 h at 25° C. At the L3 stage, larvae were incubated with 10 mM (50 mM) 6-OHDA and 2 mM (or 10 mM) ascorbic acid for 1 h with gentle agitation every 10 minutes. (Nass et al., 2002). The worms were then washed and spread onto NGM plates seeded with bacteria (OP50) and scored at time points ranging from 2 to 72 h after 6-OHDA exposure.\nImmediately after 6-OHDA treatment, worms containing the transgenes were selected under a fluorescence dissecting microscope, based on the presence of GFP, and transferred to a fresh NGM plate seeded with OP50. For each time point, 30-40 worms were applied to a 2% agarose pad and immobilized with 3 mM levamisole. Worms were examined under a Nikon Eclipse E800 epifluorescence microscope equipped with an Endow GFP filter cube (Chroma Technology, Rockingham, Vt.). For ease of analysis, only the four CEP DA neurons in the head of the worm were scored. […]"}, "[8]": {"tested_on": "transgenic worms containing the transgene Punc-54::Q82::GFP without any torsinA expression", "test": "Protein aggregate assay in worms without torsinA expression", "protocol": "C elegans nematodes were grown at 20° C. on NGM plates as described by Brenner (Brenner, Genetics, 1974, 77: 71-94). Several transgenic C. elegans lines were used for primary screens of the Prestwick small molecule library. A transgenic worm line expressing Punc-54::Q82-GFP; with both wild type (“wt”) (Punc=54: :torsinA) or mutant (Punc-54::torsinA(ΔE)). Torsin-A expresses a phenotype that results in visible protein aggregation under fluorescent microscope. Transgenic worms were plated on drug plates and progeny were studied for a return to soluble protein. […]\nas §3, §4"}, "GFP::DAT-1": {"tested_on": "GFP::DAT-1", "test": "Pdat-1::GFP::DAT-1 expression within DA neurons", "settings": "for Neurons with cell body and dendritic/axonal GFP: water control 70%; for Mean pixel intensity of cell bodies ± SEM (fluorescence intensity): water control 1970 ± 80, compounds at 1.85, 1.49, 1.86 mM"}, "[9]": {"settings": "Pdat-1::GFP::DAT-1, listed as Ciclopirox etnanolamine"}}, "note": "Structures can show the parent of a compound that is named as a salt.", "data": [{"smiles": "CCn1cc(C(=O)O)c(=O)c2cc3c(cc21)OCO3", "note": "[Compound 193, Oxolinic Acid]", "values": [{"measurement": "Specificity in worm assay", "setting": "[1]", "result": "wt torsinA"}, {"measurement": "reduction of protein aggregation", "setting": "[2]", "result": "reduced protein aggregation"}, {"measurement": "preventative effect on protein aggregation", "setting": "[3]", "result": "seem to be beneficial"}, {"measurement": "corrective effect on protein aggregation", "setting": "[4]", "result": "seem to be beneficial"}, {"measurement": "enhanced wild type DA neuron survival", "setting": "[5]", "result": "31.4±3.7", "unit": "%"}, {"measurement": "enhanced DA neuron survival", "setting": "[6]", "result": "no significant neuroprotection"}]}, {"smiles": "CC1=C(C(=O)O)N2C(=O)[C@@H](NC(=O)[C@H](N)c3ccc(O)cc3)[C@H]2SC1", "note": "[Compound 434, Cefadroxil]", "values": [{"measurement": "neuroprotection of dopaminergic neurons against 6-OHDA", "setting": "[7]", "result": "neuroprotective actions to the same degree as compound 235"}]}, {"smiles": "CCCCOc1ccc(C(=O)CCN2CCCCC2)cc1", "note": "[Compound 264, Dyclonine HCl]", "values": [{"measurement": "reduction of protein aggregates", "setting": "[8]", "result": "reduced the presence of protein aggregates"}]}, {"smiles": "CC1(C)S[C@@H]2[C@H](NC(=O)C(C(=O)O)c3ccccc3)C(=O)N2[C@H]1C(=O)O", "note": "(stereo partly shown) [Compound 703, Carbenicillin disodium salt]", "values": [{"measurement": "neuroprotection of dopaminergic neurons against 6-OHDA", "setting": "[7]", "result": "neuroprotective actions to the same degree as compound 235"}]}, {"smiles": "CC1(C)S[C@@H]2[C@H](NC(=O)[C@H](N)c3ccc(O)cc3)C(=O)N2[C@H]1C(=O)O", "note": "[Compound 357, Amoxiciflin]", "values": [{"measurement": "neuroprotection of dopaminergic neurons against 6-OHDA", "setting": "[7]", "result": "neuroprotective actions in this model, albeit to a lesser degree"}]}, {"smiles": "Cc1onc(-c2ccccc2Cl)c1C(=O)N[C@@H]1C(=O)N2[C@@H]1SC(C)(C)[C@@H]2C(=O)O", "note": "[Compound 186, Cloxacillin sodium salt]", "values": [{"measurement": "neuroprotection of dopaminergic neurons against 6-OHDA", "setting": "[7]", "result": "neuroprotective actions in this model, albeit to a lesser degree"}]}, {"smiles": "Cc1cc(C2CCCCC2)n(O)c(=O)c1.NCCO", "note": "[Ciclopirox ethanolamine]", "values": [{"measurement": "neuroprotection of dopaminergic neurons against 6-OHDA", "setting": "[7]", "result": "showed no neuroprotection"}, {"measurement": "Worms with no GFP", "setting": "GFP::DAT-1; Pdat-1::GFP::DAT-1, water control 0%", "result": 0, "unit": "%"}, {"measurement": "Neurons with cell body GFP only", "setting": "GFP::DAT-1; Pdat-1::GFP::DAT-1, water control 30%", "result": 32.3, "unit": "%"}, {"measurement": "Neurons with cell body and dendritic/axonal GFP", "setting": "GFP::DAT-1; Pdat-1::GFP::DAT-1", "result": 66.7, "unit": "%"}, {"measurement": "Neurons with cell body and dendritic/axonal GFP", "setting": "GFP::DAT-1; [9]", "result": 66.7, "unit": "%"}, {"measurement": "Mean pixel intensity of cell bodies ± SEM (fluorescence intensity)", "setting": "GFP::DAT-1; Pdat-1::GFP::DAT-1", "result": 1923, "unit": "A.U."}, {"measurement": "Mean pixel intensity of cell bodies ± SEM (fluorescence intensity)", "setting": "GFP::DAT-1; [9]", "result": "1923 ± 85", "unit": "A.U."}, {"measurement": "effect on GFP::DAT-1 level", "setting": "GFP::DAT-1; result in words", "result": "did not have any significant effect"}]}]}
